Results as given in patent publication EP0620225B1, “Cephalosporin derivatives” (Basilea Pharmaceutica AG, priority 1993, dated 1994).
In brackets after ≈: the same amount, converted by molar mass.

How the values were obtained:
Acinetobacter sp.51-156 = assay: Antibacterial spectrum (MIC), agar dilution; assay type: cell-based; settings: SP.51156, read-out: MIC
Experimental: (§1) In vitro activity was determined by minimum inhibitory concentration in a microorganism spectum by the agar dilution method in Mueller Hinton agar.

C.freundii 43 = assay: Antibacterial spectrum (MIC), agar dilution; assay type: cell-based; settings: Citrobacter freundii, read-out: MIC
Experimental: as §1

C.freundii 902 = assay: Antibacterial spectrum (MIC), agar dilution; assay type: cell-based; settings: Citrobacter freundii, read-out: MIC
Experimental: as §1

E.cloacae 908R = assay: Antibacterial spectrum (MIC), agar dilution; assay type: cell-based; settings: Enterobacter cloacae, read-out: MIC
Experimental: as §1

E.cloacae 908SSi = assay: Antibacterial spectrum (MIC), agar dilution; assay type: cell-based; settings: Enterobacter cloacae, read-out: MIC
Experimental: as §1

E.coli 25922 = assay: Antibacterial spectrum (MIC), agar dilution; assay type: cell-based; settings: Escherichia coli, read-out: MIC
Experimental: as §1

E.faecalis 6 = assay: Antibacterial spectrum (MIC), agar dilution; assay type: cell-based; settings: Enterococcus faecalis, read-out: MIC
Experimental: as §1

H.influenzae 1 = assay: Antibacterial spectrum (MIC), agar dilution; assay type: cell-based; settings: Haemophilus influenzae, read-out: MIC
Experimental: as §1

K.pneumoniae 418 = assay: Antibacterial spectrum (MIC), agar dilution; assay type: cell-based; settings: Klebsiella pneumoniae, read-out: MIC
Experimental: as §1

M.catarrhalis RA21 = assay: Antibacterial spectrum (MIC), agar dilution; assay type: cell-based; settings: Moraxella catarrhalis, read-out: MIC
Experimental: as §1

M.morganii 6H-137 = assay: Antibacterial spectrum (MIC), agar dilution; assay type: cell-based; settings: Morganella morganii, 6H137, read-out: MIC
Experimental: as §1

N.meningitidis 69480 = assay: Antibacterial spectrum (MIC), agar dilution; assay type: cell-based; settings: Neisseria meningitidis, read-out: MIC
Experimental: as §1

P.aeruginosa 27853 = assay: Antibacterial spectrum (MIC), agar dilution; assay type: cell-based; settings: Pseudomonas aeruginosa, read-out: MIC
Experimental: as §1

P.mirabilis 2117 = assay: Antibacterial spectrum (MIC), agar dilution; assay type: cell-based; settings: Proteus mirabilis, read-out: MIC
Experimental: as §1

P.vulgaris 1028 = assay: Antibacterial spectrum (MIC), agar dilution; assay type: cell-based; settings: Proteus vulgaris, read-out: MIC
Experimental: as §1

S.agalactiae QK44 = assay: Antibacterial spectrum (MIC), agar dilution; assay type: cell-based; settings: Streptococcus agalactiae, read-out: MIC
Experimental: as §1

S.aureus 6538 = assay: Antibacterial spectrum (MIC), agar dilution; assay type: cell-based; settings: Staphylococcus aureus, read-out: MIC
Experimental: as §1

S.aureus 734 MRSA = assay: Antibacterial spectrum (MIC), agar dilution; assay type: cell-based; settings: Staphylococcus aureus, read-out: MIC
Experimental: as §1

S.marcescens 69438 = assay: Antibacterial spectrum (MIC), agar dilution; assay type: cell-based; settings: Serratia marcescens, read-out: MIC
Experimental: as §1

S.pneumoniae Q19 = assay: Antibacterial spectrum (MIC), agar dilution; assay type: cell-based; settings: Streptococcus pneumoniae, read-out: MIC
Experimental: as §1

S.pyogenes B15 = assay: Antibacterial spectrum (MIC), agar dilution; assay type: cell-based; settings: Streptococcus pyogenes, read-out: MIC
Experimental: as §1

S.viridans group 016 = assay: Antibacterial spectrum (MIC), agar dilution; assay type: cell-based; settings: Streptococcus viridans, read-out: MIC
Experimental: as §1

X.maltophilia 1AC739 = assay: Antibacterial spectrum (MIC), agar dilution; assay type: cell-based; settings: Stenotrophomonas maltophilia, read-out: MIC
Experimental: as §1

S.aureus MSSA = assay: In vitro activity against selected species (MIC50, MIC90, range); assay type: cell-based; settings: Staphylococcus aureus, medium MHB (Mueller Hinton Broth)
S.pneumoniae PEN-R = assay: as above; assay type: cell-based; settings: Streptococcus pneumoniae; for MIC: MIC range
S.viridans group = assay: as above; assay type: cell-based; settings: Streptococcus viridans
E.faecalis [1] = assay: as above; assay type: cell-based; settings: Enterococcus faecalis, medium MHA
Experimental: as §1

S.aureus MRSA = assay: as above; assay type: cell-based; settings: Staphylococcus aureus, medium MHA (Mueller Hinton Agar) +NaCl
Experimental: as §1

E.faecium = assay: In vitro activity against selected species (MIC50, range); assay type: cell-based; settings: Enterococcus faecium, medium MHA
Experimental: as §1

M.catarrhalis = assay: In vitro activity against selected species (MIC50, MIC90, range); assay type: cell-based; settings: Moraxella catarrhalis, medium IsoB
Escherichia coli 25922 = assay: Efficacy against systemic infections (septicemia) in mice; assay type: in vivo; settings: 96 h, Escherichia coli 25922, po (orally) 1 and 3 h after challenge, survival day 4
Experimental: Septicemia was induced in outbred Swiss albino mice (Jbm MoRo [specific pathogen free]; weight 16 to 20 g, Biomedical Research Laboratories, Füllinsdorf, Switzerland). Mice were infected by intraperitoneal injection of diluted overnight cultures of the test organisms. Bacterial challenge doses were 4-10 times the number of organisms required to kill 50% of untreated animals within 48 h. The test compounds were administered p.o. or s.c. 1 and 3 h after the bacterial challenge. To treat the infection with Pseudomonas aeruginosa BA an additional dose was given 5 h after challenge. Control and treatment groups at each dose were composed of five mice each. The 50% effective dose (ED50, in milligrams per kilogram) was calculated by probit analysis as described by Finney (Finney, D.J. 1978, Statistical method in biological assay, 3rd ed. Charles Griffin & Co., Ltd., London), from the survival rates on day 4 after infection.

E.faecalis [2] = assay: In vitro activity against selected species (MIC50, MIC90, range); assay type: cell-based; settings: Enterococcus faecalis, medium IsoB
L.monocytogenes BK23 = assay: Antibacterial spectrum (MIC), agar dilution; assay type: cell-based; settings: Listeria monocytogenes, read-out: MIC
Experimental: as §1

[3] = medium IsoB (Isosensitest Broth)

CC(C)(C)N1CC/C(=C\C2=C(C(=O)O)N3C(=O)[C@@H](NC(=O)/C(=N\O)c4csc(N)n4)[C@H]3SC2)C1=O [J]
MIC (Acinetobacter sp.51-156): > 32 µg/mL
MIC (C.freundii 43): 4 µg/mL (≈ 7.68 µM)
MIC (C.freundii 902): 0.5 µg/mL (≈ 0.96 µM)
MIC (E.cloacae 908R): 8 µg/mL (≈ 15.4 µM)
MIC (E.cloacae 908SSi): 2 µg/mL (≈ 3.84 µM)
MIC (E.coli 25922): 0.5 µg/mL (≈ 0.96 µM)
MIC (E.faecalis 6): 2 µg/mL (≈ 3.84 µM)
MIC (H.influenzae 1): 0.25 µg/mL (≈ 0.48 µM)
MIC (K.pneumoniae 418): 1 µg/mL (≈ 1.92 µM)
MIC (M.catarrhalis RA21): 16 µg/mL (≈ 30.7 µM)
MIC (M.morganii 6H-137): 0.25 µg/mL (≈ 0.48 µM)
MIC (N.meningitidis 69480): 0.12 µg/mL (≈ 0.231 µM)
MIC (P.aeruginosa 27853): > 32 µg/mL
MIC (P.mirabilis 2117): 0.12 µg/mL (≈ 0.231 µM)
MIC (P.vulgaris 1028): 0.5 µg/mL (≈ 0.96 µM)
MIC (S.agalactiae QK44): 0.25 µg/mL (≈ 0.48 µM)
MIC (S.aureus 6538): 1 µg/mL (≈ 1.92 µM)
MIC (S.aureus 734 MRSA): 16 µg/mL (≈ 30.7 µM)
MIC (S.marcescens 69438): 1 µg/mL (≈ 1.92 µM)
MIC (S.pneumoniae Q19): 0.12 µg/mL (≈ 0.231 µM)
MIC (S.pyogenes B15): < 0.06 µg/mL
MIC (S.viridans group 016): 1 µg/mL (≈ 1.92 µM)
MIC (X.maltophilia 1AC739): > 32 µg/mL
MIC (S.aureus MSSA; MIC range): 0.5 to 2 µg/mL (≈ 0.96 to 3.84 µM)
MIC50 (S.aureus MSSA): 1 µg/mL (≈ 1.92 µM)
MIC90 (S.aureus MSSA): 2 µg/mL (≈ 3.84 µM)
MIC (S.pneumoniae PEN-R; [3]): 0.12 to 0.5 µg/mL (≈ 0.231 to 0.96 µM)
MIC (S.pneumoniae PEN-R; medium IsoB + 20% serum): 0.1 to 1 µg/mL
MIC50 (S.pneumoniae PEN-R; [3]): 0.25 µg/mL (≈ 0.48 µM)
MIC90 (S.pneumoniae PEN-R; [3]): 0.5 µg/mL (≈ 0.96 µM)
MIC50 (S.pneumoniae PEN-R; medium IsoB + 20% serum): 0.5 µg/mL
MIC50 (S.viridans group): 2 µg/mL (≈ 3.84 µM)
MIC90 (S.viridans group): 4 µg/mL (≈ 7.68 µM)
MIC (S.viridans group; MIC range): 0.12 to 8 µg/mL (≈ 0.231 to 15.4 µM)
MIC (E.faecalis [1]; MIC range): 1 to 8 µg/mL (≈ 1.92 to 15.4 µM)
MIC50 (E.faecalis [1]): 2 µg/mL (≈ 3.84 µM)
MIC90 (E.faecalis [1]): 4 µg/mL (≈ 7.68 µM)
MIC (S.aureus MRSA; MIC range): 16 to 32 µg/mL (≈ 30.7 to 61.5 µM)
MIC50 (S.aureus MRSA): 32 µg/mL (≈ 61.5 µM)
MIC90 (S.aureus MRSA): 32 µg/mL (≈ 61.5 µM)
MIC (E.faecium; MIC range): 2 to 32 µg/mL (≈ 3.84 to 61.5 µM)
MIC50 (E.faecium): 4 µg/mL (≈ 7.68 µM)
MIC (M.catarrhalis; MIC range): 2 to 32 µg/mL (≈ 3.84 to 61.5 µM)
MIC50 (M.catarrhalis): 8 µg/mL (≈ 15.4 µM)
MIC90 (M.catarrhalis): 16 µg/mL (≈ 30.7 µM)
ED50 (Escherichia coli 25922): > 2 mg/kg
MIC (E.faecalis [2]; MIC range): 0.5 to 4 µg/mL (≈ 0.96 to 7.68 µM)
MIC50 (E.faecalis [2]): 2 µg/mL (≈ 3.84 µM)
MIC90 (E.faecalis [2]): 2 µg/mL (≈ 3.84 µM)

C=CCN1CC/C(=C\C2=C(C(=O)O)N3C(=O)[C@@H](NC(=O)/C(=N\O)c4csc(N)n4)[C@H]3SC2)C1=O [L, [6R-[3(E),6α,7β(Z)]]-3-[[1-Allyl-2-oxo-3-pyrrolidinylidene]methyl]-7-[[(2-amino-4-thiazolyl)(hydroxyimino)acetyl]amino]-8-oxo-5-thia-1-azabicyclo[4.2.0]oct-2-ene-2-carboxylic acid]
MIC (Acinetobacter sp.51-156): 16 µg/mL (≈ 31.7 µM)
MIC (C.freundii 43): 4 µg/mL (≈ 7.93 µM)
MIC (C.freundii 902): ≤ 0.06 µg/mL
MIC (E.cloacae 908R): 16 µg/mL (≈ 31.7 µM)
MIC (E.cloacae 908SSi): 0.25 µg/mL (≈ 0.495 µM)
MIC (E.coli 25922): ≤ 0.06 µg/mL
MIC (E.faecalis 6): 2 µg/mL (≈ 3.96 µM)
MIC (H.influenzae 1): 0.5 µg/mL (≈ 0.991 µM)
MIC (K.pneumoniae 418): 0.12 µg/mL (≈ 0.238 µM)
MIC (L.monocytogenes BK23): 4 µg/mL (≈ 7.93 µM)
MIC (M.catarrhalis RA21): 8 µg/mL (≈ 15.9 µM)
MIC (M.morganii 6H-137): ≤ 0.06 µg/mL
MIC (N.meningitidis 69480): ≤ 0.06 µg/mL
MIC (P.aeruginosa 27853): 16 µg/mL (≈ 31.7 µM)
MIC (P.mirabilis 2117): ≤ 0.06 µg/mL
MIC (P.vulgaris 1028): 2 µg/mL (≈ 3.96 µM)
MIC (S.agalactiae QK44): 0.25 µg/mL (≈ 0.495 µM)
MIC (S.aureus 6538): 1 µg/mL (≈ 1.98 µM)
MIC (S.aureus 734 MRSA): 16 µg/mL (≈ 31.7 µM)
MIC (S.marcescens 69438): 1 µg/mL (≈ 1.98 µM)
MIC (S.pneumoniae Q19): ≤ 0.06 µg/mL
MIC (S.pyogenes B15): ≤ 0.06 µg/mL
MIC (S.viridans group 016): 1 µg/mL (≈ 1.98 µM)
MIC (X.maltophilia 1AC739): > 32 µg/mL

N#CCN1CC/C(=C\C2=C(C(=O)O)N3C(=O)[C@@H](NC(=O)/C(=N\O)c4csc(N)n4)[C@H]3SC2)C1=O [M, [6R-[3(E),6α,7β(Z)]]-7-[[(2-Amino-4-thiazolyl)(hydroxyimino)acetyl]-amino]-3-[[1-cyanomethyl-2-oxo-3-pyrrolidinylidene]methyl]-8-oxo-5-thia-1-azabicyclo[4.2.0]oct-2-ene-2-carboxylic acid]
MIC (Acinetobacter sp.51-156): 8 µg/mL (≈ 15.9 µM)
MIC (C.freundii 43): 8 µg/mL (≈ 15.9 µM)
MIC (C.freundii 902): 0.25 µg/mL (≈ 0.497 µM)
MIC (E.cloacae 908R): 16 µg/mL (≈ 31.8 µM)
MIC (E.cloacae 908SSi): 1 µg/mL (≈ 1.99 µM)
MIC (E.coli 25922): ≤ 0.06 µg/mL
MIC (E.faecalis 6): 1 µg/mL (≈ 1.99 µM)
MIC (H.influenzae 1): 0.5 µg/mL (≈ 0.993 µM)
MIC (K.pneumoniae 418): 0.12 µg/mL (≈ 0.238 µM)
MIC (L.monocytogenes BK23): 4 µg/mL (≈ 7.94 µM)
MIC (M.catarrhalis RA21): 8 µg/mL (≈ 15.9 µM)
MIC (M.morganii 6H-137): ≤ 0.06 µg/mL
MIC (N.meningitidis 69480): ≤ 0.06 µg/mL
MIC (P.aeruginosa 27853): 8 µg/mL (≈ 15.9 µM)
MIC (P.mirabilis 2117): ≤ 0.06 µg/mL
MIC (P.vulgaris 1028): 8 µg/mL (≈ 15.9 µM)
MIC (S.agalactiae QK44): 0.25 µg/mL (≈ 0.497 µM)
MIC (S.aureus 6538): 1 µg/mL (≈ 1.99 µM)
MIC (S.aureus 734 MRSA): 4 µg/mL (≈ 7.94 µM)
MIC (S.marcescens 69438): 4 µg/mL (≈ 7.94 µM)
MIC (S.pneumoniae Q19): ≤ 0.06 µg/mL
MIC (S.pyogenes B15): ≤ 0.06 µg/mL
MIC (S.viridans group 016): 1 µg/mL (≈ 1.99 µM)
MIC (X.maltophilia 1AC739): > 32 µg/mL
